Experimental data reported in patent US20230051589A1, “COMPOUNDS AND COMPOSITIONS FOR TREATING CONDITIONS ASSOCIATED WITH NLRP ACTIVITY” (Novartis AG, priority 2018, published 2023).
Read-outs that look alike come from different tables or passages of the source.

Tested on: IL-1β production in hTHP-1 cells
Assay: hTHP-1 assay containing 10% fetal bovine serum
Assay type: cell-based, human
Experimental: inhibition=100-100×[HCave−Readout/(HCave−LCave)] • 2. Fit the normalized data in a dose-response manner using XLfit, and calculate the compound concentration. Tables B1, B2, and B3 show the biological activity of compounds in hTHP-1 assay containing 2% fetal bovine serum. […] Key: <0.008 μM=“++++++”; ≥0.008 and <0.04 μM=“+++++”; ≥0.04 and <0.2 μM=“++++”; ≥0.2 and <1 μM=“+++”; ≥1 and <5 μM=“++”; ≥5 and <30 μM=“+”.

[1] = read-out: hTHP-1 IC50 in 10% FBS, hTHP-1 assay containing 10% fetal bovine serum, Table B4

For `CC(C)(O)c1csc(S(N)(=O)=NC(=O)Nc2c3c(cc4c2CC4)CCC3)c1F` (single isomer, unassigned) [Example 882, (R) or (S)-3-fluoro-4-(2-hydroxypropan-2-yl)-N′-((2,4,5,6-tetrahydro-1H-cyclobuta[f]inden-3-yl)carbamoyl)thiophene-2-sulfonimidamide], the IC50 [1] was 8 to 40 nM.
In the case of `CC(C)(O)c1csc(S(N)(=O)=NC(=O)Nc2c3c(cc4c2CCC4)CCC3)c1F` (single isomer, unassigned) [Example 881, (S) or (R)-3-fluoro-N′-((1,2,3,5,6,7-hexahydro-s-indacen-4-yl)carbamoyl)-4-(2-hydroxypropan-2-yl)thiophene-2-sulfonimidamide], the IC50 [1] is reported as 5000 to 30000 nM.
With `CC(C)(O)c1csc(S(N)(=O)=NC(=O)Nc2c3c(cc4c2CC4)CCC3)c1F` (single isomer, unassigned) [Example 883, (S) or (R)-3-fluoro-4-(2-hydroxypropan-2-yl)-N′-((2,4,5,6-tetrahvdro-1H-cyclobuta[f]inden-3-yl)carbamoyl)thiophene-2-sulfonimidamide] the IC50 [1] was 1000 to 5000 nM.
`CC(C)(O)c1csc(S(N)(=O)=NC(=O)Nc2c3c(cc4c2CC4)CCC3)c1F` (stereo not shown) [Example 879, 3-Fluoro-4-(2-hydroxypropan-2-yl)-N′-((2,4,5,6-tetrahydro-1H-cyclobuta[f]inden-3-yl)carbamoyl)thiophene-2-sulfonimidamide] was tested, and the IC50 (Homo sapiens, read-out: hTHP-1 IC50 in 10% FBS, hTHP-1 assay containing 10% fetal bovine serum, Table B4) was 40 to 200 nM.
